The target in this assay is T1, human leukocyte elastase (HLE) (Homo sapiens, UniProt P08246).
T1 construct: purchased Calbiochem Lot 702038
T1 sequence (P08246 30-267): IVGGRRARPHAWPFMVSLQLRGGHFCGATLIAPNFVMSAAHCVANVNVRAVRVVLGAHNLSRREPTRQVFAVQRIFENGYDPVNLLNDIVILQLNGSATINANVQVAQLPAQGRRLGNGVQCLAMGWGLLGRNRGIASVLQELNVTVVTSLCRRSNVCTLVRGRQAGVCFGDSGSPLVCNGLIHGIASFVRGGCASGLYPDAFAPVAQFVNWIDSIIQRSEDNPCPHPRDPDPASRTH
The assay is described as follows: Kinetic parameters for HLE inhibition (release of 7-amino-4-methylcoumarin from N-methoxysuccinyl-alanylprolyl-valyl-7-amido-4-methylcoumarin, fluorescence detection). It counts as biochemical. The conditions noted are these: 37° C., 0.027 M pH 7.4 phosphate buffer, 1% DMSO, 1% MeCN, NaCl (I=0.15); for kon: read-out: kon (rate of formation of the HLE-inhibitor complex); for Ki: steady state, read-out: Ki^ss (apparent dissociation constant of the HLE-inhibitor complex at steady state). An excerpt: Km =Michaelis constant for the enzyme-substrate pair (independently determined under the same experimental conditions).

Broadly, the kon is the second-order rate constant of association.

As to `CC(=O)OCC1=C(C(=O)SC(C)(C)C)N2C(=O)[C@H](Cl)[C@H]2S(=O)(=O)C1` [Comp. 3], the kon came to 480000 M⁻¹ s⁻¹ and the Ki is 2.6 nM. `CC(=O)OCC1=C(C(=O)SCc2ccccc2)N2C(=O)[C@H](Cl)[C@H]2S(=O)(=O)C1` [Comp. 11, Benzyl 3-acetoxymethyl-7S-chloro-8-oxo-5-thia-1-azabicyclo-[4,2,0]oct-2-ene-5,5-dioxide-2-carbothiolate]: the kon amounted to 1.26e+06 M⁻¹ s⁻¹ and the Ki worked out at 8.2 nM. As for `COCC1=C(C(=O)SC(C)(C)C)N2C(=O)[C@H](Cl)[C@H]2S(=O)(=O)C1` [Comp. 59, t-Butyl 7S-chloro-3-methoxymethyl-8-oxo-5-thia-1-azabicyclo [4,2,0]oct-2-ene-5,5-dioxide-2-carbothiolate], the kon was 150000 M⁻¹ s⁻¹ and the Ki is 16 nM. With `Cn1nnnc1SCC1=C(C(=O)SC(C)(C)C)N2C(=O)[C@H](Cl)[C@H]2S(=O)(=O)C1` [Comp. 60, t-Butyl 7S-chloro-3-(1-methyl-1,2,3,4-tetrazol-5-yl) thiomethyl-8-oxo-5-thia-1-azabicyclo[4,2,0]oct-2-ene-5,5-dioxide-2-carbothiolate], the Ki was found to be 4.3 nM.

The values are drawn from patent US5356888A, “1,1-dioxo-cephem-4-carbothiolic acid derivatives” (Farmitalia Carlo Erba, priority 1988, dated 1994).
